{
  "source": "patent US6534546B1",
  "about": "(Chugai Seiyaku Kabushiki Kaisha, priority 1994, dated 2003)",
  "key": {"iNOS (Type 2)": {"target": "iNOS (Type 2) (Rattus norvegicus, UniProt Q06518)", "sequence (Q06518 whole entry, looked up)": "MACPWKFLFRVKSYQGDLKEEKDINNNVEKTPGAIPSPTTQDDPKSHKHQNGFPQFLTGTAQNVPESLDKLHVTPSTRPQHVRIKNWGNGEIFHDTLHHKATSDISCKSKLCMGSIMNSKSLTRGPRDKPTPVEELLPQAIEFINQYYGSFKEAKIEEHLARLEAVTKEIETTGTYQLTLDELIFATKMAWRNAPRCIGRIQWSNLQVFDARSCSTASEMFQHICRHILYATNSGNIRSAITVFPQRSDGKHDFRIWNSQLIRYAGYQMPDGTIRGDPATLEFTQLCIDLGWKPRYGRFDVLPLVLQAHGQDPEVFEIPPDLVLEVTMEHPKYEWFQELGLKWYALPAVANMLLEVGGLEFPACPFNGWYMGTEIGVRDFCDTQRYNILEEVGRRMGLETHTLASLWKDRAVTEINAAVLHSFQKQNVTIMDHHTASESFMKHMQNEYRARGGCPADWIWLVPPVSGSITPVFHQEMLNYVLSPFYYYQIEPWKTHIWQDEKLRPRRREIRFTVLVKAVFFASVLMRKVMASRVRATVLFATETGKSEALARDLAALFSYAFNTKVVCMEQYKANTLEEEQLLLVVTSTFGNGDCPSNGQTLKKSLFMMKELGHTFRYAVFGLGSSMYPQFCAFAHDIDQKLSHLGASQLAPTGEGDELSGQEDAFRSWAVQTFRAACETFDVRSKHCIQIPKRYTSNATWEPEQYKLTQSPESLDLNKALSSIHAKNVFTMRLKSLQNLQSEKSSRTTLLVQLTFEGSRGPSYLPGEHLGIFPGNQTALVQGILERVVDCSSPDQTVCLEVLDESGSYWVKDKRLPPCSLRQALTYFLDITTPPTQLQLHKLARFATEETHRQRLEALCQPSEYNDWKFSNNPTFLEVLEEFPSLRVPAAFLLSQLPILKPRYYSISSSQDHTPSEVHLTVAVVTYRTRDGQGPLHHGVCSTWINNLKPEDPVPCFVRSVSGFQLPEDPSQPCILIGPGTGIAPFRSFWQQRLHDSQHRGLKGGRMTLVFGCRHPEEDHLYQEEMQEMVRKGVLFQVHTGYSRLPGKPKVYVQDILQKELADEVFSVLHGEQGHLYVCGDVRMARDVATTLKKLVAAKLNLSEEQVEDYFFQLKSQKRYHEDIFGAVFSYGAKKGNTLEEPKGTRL", "experiment": "biochemical", "format": "biochemical"}, "E-cNOS (Type 3)": {"target": "T1, E-cNOS (Type 3) (Bos taurus, UniProt P29473)", "T1 construct": "the resulting supernatant was used as the crude enzyme sample of E-cNOS; endogenous in cells; host or cells: CPAE (cow pulmonary arterial endothelium cells), 1% Triton X-100 extract, 100,000 x g supernatant", "T1 sequence (P29473 2-1205)": "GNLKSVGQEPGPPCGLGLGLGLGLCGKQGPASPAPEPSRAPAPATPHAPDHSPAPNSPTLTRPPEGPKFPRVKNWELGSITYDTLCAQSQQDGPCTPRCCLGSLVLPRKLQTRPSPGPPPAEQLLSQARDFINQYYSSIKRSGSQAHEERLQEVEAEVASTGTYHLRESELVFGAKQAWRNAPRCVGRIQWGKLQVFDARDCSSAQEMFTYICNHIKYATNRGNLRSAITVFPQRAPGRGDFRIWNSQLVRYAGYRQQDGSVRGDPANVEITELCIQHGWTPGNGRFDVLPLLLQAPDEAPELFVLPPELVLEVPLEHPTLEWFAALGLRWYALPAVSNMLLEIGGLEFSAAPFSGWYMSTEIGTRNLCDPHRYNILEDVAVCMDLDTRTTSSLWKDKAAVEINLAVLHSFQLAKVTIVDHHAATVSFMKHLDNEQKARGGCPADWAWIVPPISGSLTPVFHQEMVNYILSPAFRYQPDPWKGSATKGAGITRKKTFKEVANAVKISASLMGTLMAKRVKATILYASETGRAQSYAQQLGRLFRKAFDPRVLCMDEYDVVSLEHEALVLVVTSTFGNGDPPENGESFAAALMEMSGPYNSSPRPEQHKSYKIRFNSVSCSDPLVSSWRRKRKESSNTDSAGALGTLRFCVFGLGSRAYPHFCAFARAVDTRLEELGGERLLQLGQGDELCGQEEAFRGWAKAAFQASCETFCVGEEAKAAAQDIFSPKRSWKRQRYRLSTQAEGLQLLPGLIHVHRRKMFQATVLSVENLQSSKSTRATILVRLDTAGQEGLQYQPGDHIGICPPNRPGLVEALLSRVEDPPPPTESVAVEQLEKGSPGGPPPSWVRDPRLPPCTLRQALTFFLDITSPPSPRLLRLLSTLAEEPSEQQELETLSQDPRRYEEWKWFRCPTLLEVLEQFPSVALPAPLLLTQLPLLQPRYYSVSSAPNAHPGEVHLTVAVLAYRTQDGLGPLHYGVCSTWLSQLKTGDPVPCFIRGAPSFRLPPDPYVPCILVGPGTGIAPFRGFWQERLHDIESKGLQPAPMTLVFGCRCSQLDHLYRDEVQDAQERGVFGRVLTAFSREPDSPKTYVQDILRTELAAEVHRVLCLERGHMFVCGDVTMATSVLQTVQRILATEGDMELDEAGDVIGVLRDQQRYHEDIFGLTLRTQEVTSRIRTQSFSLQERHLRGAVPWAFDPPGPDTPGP", "experiment": "biochemical"}, "[1]": {"conditions": "mean of one to four independent experiments, crude enzyme, 100 nM L-[3H]arginine, without CaCl2 and calmodulin, read-out: IC50 value, iNOS (Type 2)"}, "[2]": {"conditions": "mean of one to four independent experiments, crude enzyme, 100 nM L-[3H]arginine, read-out: IC50 value, E-cNOS (Type 3)"}, "[3]": {"conditions": "conclusion from Tables 49, 50 and 51"}},
  "note": "Structures can show the parent of a compound that is named as a salt. Where two headings read alike, the source gives them in different places.",
  "data": [
    {"smiles": "CCSC(=N)Nc1ccc(N(C)C)c(CN)c1.Cl.Cl.Cl", "note": "[Example 270, N-(2-dimethylamino-5-(S-ethylisothioureido)phenylmethyl)amine trihydrochloride]", "values": [
      {"measurement": "Ratio of IC50 values E-cNOS/iNOS", "setting": "iNOS (Type 2); index of selectivity", "value": 0.8},
      {"measurement": "IC50", "setting": "iNOS (Type 2); [1]", "value": 4530, "unit": "nM"},
      {"measurement": "IC50", "setting": "E-cNOS (Type 3); [2]", "value": 3590, "unit": "nM"}
    ]},
    {"smiles": "CC(=N)NCCC[C@H](N)C(=O)O", "note": "[L-NIO, NG-iminoethyl-L-ornithine, reference compound]", "values": [
      {"measurement": "IC50", "setting": "iNOS (Type 2); mean of one to four independent experiments, LPS-treated rat lung crude enzyme, read-out: IC50 value, iNOS (Type 2)", "value": 458, "unit": "nM"},
      {"measurement": "IC50", "setting": "E-cNOS (Type 3); mean of one to four independent experiments, CPAE cell crude enzyme, read-out: IC50 value, E-cNOS (Type 3)", "value": 1230, "unit": "nM"}
    ]},
    {"smiles": "CSC(=N)Nc1cccc(C(C)N)c1.Cl.Cl", "note": "(stereo not drawn) [Example 12, N-(1-(3-(S-methylisothioureido)phenyl)ethyl)amine dihydrochloride]", "values": [
      {"measurement": "Ratio of IC50 values E-cNOS/iNOS", "setting": "iNOS (Type 2)", "value": 2.3},
      {"measurement": "iNOS inhibitory potency compared with the existing NOS inhibitors (L-MIN)", "setting": "iNOS (Type 2); [3]", "value": "more potent in inhibiting iNOS than L-MIN"},
      {"measurement": "IC50", "setting": "iNOS (Type 2); [1]", "value": 239, "unit": "nM"},
      {"measurement": "IC50", "setting": "E-cNOS (Type 3); [2]", "value": 538, "unit": "nM"}
    ]},
    {"smiles": "CSC(=N)Nc1ccc(CCN)cc1.Cl.Cl", "note": "[Example 52, N-(4-(S-methylisothioureido)phenylethyl)amine dihydrochloride]", "values": [
      {"measurement": "Ratio of IC50 values E-cNOS/iNOS", "setting": "iNOS (Type 2); index of selectivity", "value": 0.2},
      {"measurement": "IC50", "setting": "iNOS (Type 2); [1]", "value": 2760, "unit": "nM"},
      {"measurement": "IC50", "setting": "E-cNOS (Type 3); [2]", "value": 483, "unit": "nM"}
    ]},
    {"smiles": "CCSC(=N)Nc1ccc(CCN)cc1.Cl.Cl", "note": "[Example 104, N-(4-(S-ethylisothioureido)phenylethyl)amine dihydrochloride]", "values": [
      {"measurement": "iNOS inhibitory potency compared with the existing NOS inhibitors (L-MIN)", "setting": "iNOS (Type 2); [3]", "value": "more potent in inhibiting iNOS than L-MIN"},
      {"measurement": "Ratio of IC50 values E-cNOS/iNOS", "setting": "iNOS (Type 2); index of selectivity", "value": 1.4},
      {"measurement": "IC50", "setting": "iNOS (Type 2); [1]", "value": 86.5, "unit": "nM"},
      {"measurement": "IC50", "setting": "E-cNOS (Type 3); [2]", "value": 118, "unit": "nM"}
    ]},
    {"smiles": "CCOc1ccc(NC(=N)SCC)cc1CN.Cl.Cl", "note": "[Example 324, N-(2-ethoxy-5-(S-ethylisothioureido)phenylmethyl) amine dihydrochloride]", "values": [
      {"measurement": "Ratio of IC50 values E-cNOS/iNOS", "setting": "iNOS (Type 2); index of selectivity", "value": 0.3},
      {"measurement": "IC50", "setting": "iNOS (Type 2); [1]", "value": 8730, "unit": "nM"},
      {"measurement": "IC50", "setting": "E-cNOS (Type 3); [2]", "value": 2310, "unit": "nM"}
    ]},
    {"smiles": "CSC(=N)Nc1cccc(C(C)(C)N)c1.Cl.Cl", "note": "[Example 5, N-(1-methyl-1-(3-(S-methylisothioureido)phenyl)ethyl)amine dihydrochloride]", "values": [
      {"measurement": "Ratio of IC50 values E-cNOS/iNOS", "setting": "iNOS (Type 2); index of selectivity", "value": 1.0},
      {"measurement": "IC50", "setting": "iNOS (Type 2); [1]", "value": 449, "unit": "nM"},
      {"measurement": "IC50", "setting": "E-cNOS (Type 3); [2]", "value": 429, "unit": "nM"}
    ]},
    {"smiles": "CCN=C(N)Nc1ccc(N(C)C)c(CN)c1.Cl.Cl.Cl", "note": "[Example 267, N-(2-dimethylamino-5-(N′-ethylguanidino)phenylmethyl)amine trihydrochloride]", "values": [
      {"measurement": "selectivity for iNOS compared to E-cNOS, compared with the existing NOS inhibitors (L-NIO)", "setting": "iNOS (Type 2); [3]", "value": "more selective inhibitory effect on iNOS than L-NIO"},
      {"measurement": "Ratio of IC50 values E-cNOS/iNOS", "setting": "iNOS (Type 2); index of selectivity", "value": 10.5},
      {"measurement": "IC50", "setting": "iNOS (Type 2); [1]", "value": 4790, "unit": "nM"},
      {"measurement": "IC50", "setting": "E-cNOS (Type 3); [2]", "value": 50100, "unit": "nM"}
    ]},
    {"smiles": "CCSC(N)=NCCC[C@H](N)C(=O)O", "note": "[L-EIN, S-ethyl-L-thiocitrulline, reference compound]", "values": [
      {"measurement": "IC50", "setting": "iNOS (Type 2); [1]", "value": 6760, "unit": "nM"},
      {"measurement": "IC50", "setting": "E-cNOS (Type 3); [2]", "value": 732, "unit": "nM"}
    ]},
    {"smiles": "CCSC(=N)Nc1ccc(OC)c(CN)c1", "note": "[Example 122, N-(5-(S-ethylisothioureido)-2-methoxyphenylmethyl)amine dihydrochloride]", "values": [
      {"measurement": "IC50", "setting": "iNOS (Type 2); [1]", "value": 24600, "unit": "nM"},
      {"measurement": "IC50", "setting": "E-cNOS (Type 3); [2]", "value": 3530, "unit": "nM"}
    ]},
    {"smiles": "CCSC(=N)Nc1ccc(OCc2ccccc2)c(CN)c1.Cl.Cl", "note": "[Example 337, N-(2-benzyloxy-5-(S-ethylisothioureido)phenylmethyl)amine dihydrochloride]", "values": [
      {"measurement": "Ratio of IC50 values E-cNOS/iNOS", "setting": "iNOS (Type 2); index of selectivity", "value": 0.3},
      {"measurement": "IC50", "setting": "E-cNOS (Type 3); [2]", "value": 5200, "unit": "nM"}
    ]},
    {"smiles": "CCSC(=N)Nc1cccc(CN)c1C.Cl.Cl", "note": "[Example 131, N-(3-(S-ethylisothioureido)-2-methylphenylmethyl)amine dihydrochloride]", "values": [
      {"measurement": "Ratio of IC50 values E-cNOS/iNOS", "setting": "iNOS (Type 2)", "value": 6.2},
      {"measurement": "selectivity for iNOS compared to E-cNOS, compared with the existing NOS inhibitors (L-NIO)", "setting": "iNOS (Type 2)", "value": "more selective inhibitory effect on iNOS than L-NIO"},
      {"measurement": "iNOS inhibitory potency compared with the existing NOS inhibitors (L-MIN)", "setting": "iNOS (Type 2); [3]", "value": "more potent in inhibiting iNOS than L-MIN"},
      {"measurement": "IC50", "setting": "iNOS (Type 2); [1]", "value": 78.2, "unit": "nM"},
      {"measurement": "IC50", "setting": "E-cNOS (Type 3); [2]", "value": 481, "unit": "nM"}
    ]},
    {"smiles": "CC(C)(N)c1cccc(NC(N)=N[N+](=O)[O-])c1.Cl", "note": "[Example 7, N-(1-methyl-1-(3-(N′-nitroguanidino)phenyl)ethyl)amine hydrochloride]", "values": [
      {"measurement": "Ratio of IC50 values E-cNOS/iNOS", "setting": "iNOS (Type 2)", "value": 0.02},
      {"measurement": "IC50", "setting": "iNOS (Type 2); [1]", "value": 2120, "unit": "nM"},
      {"measurement": "IC50", "setting": "E-cNOS (Type 3); [2]", "value": 42.4, "unit": "nM"}
    ]},
    {"smiles": "CCSC(=N)Nc1ccc(OC)c(C(C)(C)N)c1", "note": "[Example 350, N-(1-(5-(S-ethylisothioureido)-2-methoxyphenyl)-1-methylethyl)amine]", "values": [
      {"measurement": "Ratio of IC50 values E-cNOS/iNOS", "setting": "iNOS (Type 2); index of selectivity", "value": 0.3},
      {"measurement": "IC50", "setting": "iNOS (Type 2); [1]", "value": 58400, "unit": "nM"},
      {"measurement": "IC50", "setting": "E-cNOS (Type 3); [2]", "value": 15800, "unit": "nM"}
    ]},
    {"smiles": "N/N=C(\\N)NCCC[C@H](N)C(=O)O", "note": "[L-AA, N^G-amino-L-arginine, reference compound]", "values": [
      {"measurement": "IC50", "setting": "iNOS (Type 2)", "value": 1280, "unit": "nM"},
      {"measurement": "IC50", "setting": "E-cNOS (Type 3)", "value": 167, "unit": "nM"}
    ]},
    {"smiles": "CN(C)Cc1cccc(NC(N)=N[N+](=O)[O-])c1", "note": "[Example 39, N-(3-(N′-nitroguanidino)phenylmethyl)dimethylamine acetate]", "values": [
      {"measurement": "IC50", "setting": "iNOS (Type 2); [1]", "value": 22900, "unit": "nM"}
    ]},
    {"smiles": "CCSC(=N)Nc1ccc(NC)c(CN)c1.Cl.Cl.Cl", "note": "[Example 452, N-(5-(S-ethylisothioureido)-2-methylaminophenylmethyl)amine trihydrochloride]", "values": [
      {"measurement": "Ratio of IC50 values E-cNOS/iNOS", "setting": "iNOS (Type 2)", "value": 0.5},
      {"measurement": "IC50", "setting": "iNOS (Type 2); [1]", "value": 6960, "unit": "nM"},
      {"measurement": "IC50", "setting": "E-cNOS (Type 3); [2]", "value": 3630, "unit": "nM"}
    ]},
    {"smiles": "CCN=C(N)Nc1cccc(CN)c1Cl.Cl.Cl", "note": "[Example 538, N-(2-chloro-3-(N′-ethylguanidino)phenylmethyl)amine dihydrochloride]", "values": [
      {"measurement": "Ratio of IC50 values E-cNOS/iNOS", "setting": "iNOS (Type 2)", "value": 8.3},
      {"measurement": "selectivity for iNOS compared to E-cNOS, compared with the existing NOS inhibitors (L-NIO)", "setting": "iNOS (Type 2)", "value": "more selective inhibitory effect on iNOS than L-NIO"},
      {"measurement": "IC50", "setting": "iNOS (Type 2); [1]", "value": 306, "unit": "nM"},
      {"measurement": "IC50", "setting": "E-cNOS (Type 3); [2]", "value": 2540, "unit": "nM"}
    ]},
    {"smiles": "CSC(=N)Nc1cccc(CN)c1.Cl.Cl", "note": "[Example 26, N-(3-(S-methylisothioureido)phenylmethyl)amine dihydrochloride]", "values": [
      {"measurement": "Ratio of IC50 values E-cNOS/iNOS", "setting": "iNOS (Type 2); index of selectivity", "value": 0.3},
      {"measurement": "IC50", "setting": "iNOS (Type 2); [1]", "value": 1350, "unit": "nM"},
      {"measurement": "IC50", "setting": "E-cNOS (Type 3); [2]", "value": 431, "unit": "nM"}
    ]},
    {"smiles": "CCC(N)c1cccc(NC(N)=N[N+](=O)[O-])c1", "note": "(stereo not drawn) [Example 21, N-(1-(3-(N′-nitroguanidino)phenyl)propyl)amine hydrochloride]", "values": [
      {"measurement": "IC50", "setting": "iNOS (Type 2); [1]", "value": 2610, "unit": "nM"}
    ]}
  ]
}
